# Measured values from patent US9428515B2, “Benzimidazole derivatives” (Boehringer Ingelheim International GmbH, priority 2014, dated 2016).
# Target: T1, BRD4-BD1 (Homo sapiens, UniProt O60885)
# T1 construct: 15 nM GST-BRD4-BD1 protein (aa 44-168)
# Test: BRD4-H4 tetraacetylated peptide inhibition AlphaScreen
# Type: binding
# Conditions: 15 nM GST-BRD4-BD1 (aa 44-168), 15 nM biotinylated Acetyl-Histone H4 (Lys5, 8, 12, 16) peptide, 30 min at RT
# Method: Biological Methods BRD4-H4 Tetraacetylated Peptide Inhibition AlphaScreen
# Compounds are diluted in serial dilution 1:5 in assay buffer from 10 mM stock in DMSO (100 μM start concentration) in white OptiPlate-384 (PerkinElmer). A mix consisting of 15 nM GST-BRD4-BD1 protein (aa 44-168) or 150 nM GST-BRD4-BD2 (aa 333-460) and 15 nM biotinylated Acetyl-Histone H4 (Lys5, 8, 12, 16) peptide is prepared in assay buffer (50 mM HEPES pH=7.4; 25 mM NaCl; 0.05% Tween 20; 0.1% bovine serum albumin (BSA); 10 mM dithiothreitol (DTT)). 6 μl of the mix is added to the compound dilutions. Subsequently, 6 μl of premixed AlphaLISA Glutathione Acceptor Beads and AlphaScreen Streptavidin Donor Beads from PerkinElmer (in assay buffer at a concentration of 10 μg/ml each) are added and the samples are incubated for 30 min at RT in the dark (shaking 300 rpm). Afterwards, the signal is measured in a PerkinElmer Envision HTS Multilabel Reader using the AlphaScreen protocol from PerkinElmer.
# Each plate contains negative controls where biotinylated Acetyl-Histone H4 peptide and GST-BRD4-BD1 or GST-BRD4-BD2 are left out and replaced by assay buffer. Negative control values are entered as low basis value when using the software GraphPad Prism for calculations. Furthermore, a positive control (probe molecule JQ1+ with protein/peptide mix) is pipetted. Determination of IC50 values are carried out using GraphPad Prism 3.03 software (or updates thereof).
row,SMILES,IC50
1,"COC[C@H](C)n1c(-c2cc(C)c(=O)n(C)c2)nc2cc3c(cc21)N(C)C(=O)C3(C)C [I-1, 2-(1,5-Dimethyl-6-oxo-1,6-dihydro-pyridin-3-yl)-3-((S)-2-methoxy-1-methyl-ethyl)-5,7,7-trimethyl-5,7-dihydro-3H-imidazo[4,5-f]indol-6-one]",50 nM
2,"Cc1cc(-c2nc3cc4c(cc3n2[C@@H](C)c2ccccc2)N(C(C)C)C(=O)C4(C)C)cn(C)c1=O [I-2, 2-(1,5-Dimethyl-6-oxo-1,6-dihydro-pyridin-3-yl)-5-isopropyl-7,7-dimethyl-3-((S)-1-phenyl-ethyl)-5,7-dihydro-3H-imidazo[4,5-f]indol-6-one]",3 nM
3,Cc1cc(-c2nc3cc4c(cc3n2Cc2ccccn2)N(C)C(=O)C4(C)C)cn(C)c1=O [I-3],44 nM
4,COC[C@H](C)n1c(-c2cc(C)c(=O)n(C)c2)nc2cc3c(cc21)N(C(C)C)C(=O)C3(C)C [I-4],22 nM
5,Cc1nc(-c2nc3cc4c(cc3n2[C@@H](C)c2ccccc2)N(C(C)C)C(=O)C4(C)C)cn(C)c1=O [I-5],9 nM
6,Cc1nc(-c2nc3cc4c(cc3n2[C@@H](C)c2ccccc2)N(C)C(=O)C4(C)C)cn(C)c1=O [I-6],15 nM
7,Cc1cc(-c2nc3cc4c(cc3n2[C@@H](C)c2ccccc2)N(C)C(=O)C4(C)C)cn(C)c1=O [I-7],4 nM
8,CCN1C(=O)C(C)(C)c2cc3nc(-c4cc(C)c(=O)n(C)c4)n([C@@H](C)c4ccccc4)c3cc21 [I-8],2 nM
9,Cc1cc(-c2nc3cc4c(cc3n2[C@@H](C)c2ccccc2)N(C(C)C)C(=O)C42CC2)cn(C)c1=O [I-9],17 nM
10,Cc1cc(-c2nc3cc4c(cc3n2[C@@H](C)c2ccccc2)C(=O)N(C)C4(C)C)cn(C)c1=O [II-1],13 nM
11,Cc1cc(-c2nc3cc4c(C)nn(C)c4cc3n2[C@@H](C)c2ccccc2)cn(C)c1=O [III-1],5 nM
12,CCn1nc(C)c2cc3nc(-c4cc(C)c(=O)n(C)c4)n([C@@H](C)c4ccccc4)c3cc21 [III-2],8 nM
13,CCc1nn(C)c2cc3c(cc12)nc(-c1cc(C)c(=O)n(C)c1)n3[C@@H](C)c1ccccc1 [III-3],9 nM
